Results: ChEMBL document CHEMBL5321248, “Syntheses and antitumor activities of neorautenol and shinpterocarpin analogs” (Bioorg Med Chem Lett, 2023)

Legend:
MDA-MB-231 = assay: Antitumor activity against human MDA-MB-231 cells assessed as inhibition of cell growth by MTT assay; format: functional, cell-based
NCI-H1299 = assay: Antitumor activity against human NCI-H1299 cells assessed as inhibition of cell growth by MTT assay; format: functional, cell-based
A549 = assay: Antitumor activity against human A549 cells assessed as inhibition of cell growth by MTT assay; format: functional, cell-based
HCT-116 = assay: Antitumor activity against human HCT-116 cells assessed as inhibition of cell growth by MTT assay; format: functional, cell-based
NCI-H460 = assay: Antitumor activity against human NCI-H460 cells assessed as inhibition of cell growth by MTT assay; format: functional, cell-based
Hep 3B2 = assay: Antitumor activity against human Hep3B cells assessed as inhibition of cell growth by MTT assay; format: functional, cell-based
[1] = Cytotoxicity against human RPE cells assessed as reduction in cell viability at 50 uM relative to control; format: toxicity, cell-based
[2] = Cytotoxicity against human RPE cells assessed as reduction in cell viability at 10 uM relative to control; format: toxicity, cell-based
HT-22 [3] = assay: Cytotoxicity against mouse HT-22 cells assessed as reduction in cell viability at 10 uM relative to control; format: toxicity, cell-based; conditions: ht-22, 10 µM
HT-22 [4] = assay: Cytotoxicity against mouse HT-22 cells assessed as reduction in cell viability at 50 uM relative to control; format: toxicity, cell-based; conditions: ht-22, 50 µM

SMILES | IC50 (MDA-MB-231) [µM] | IC50 (NCI-H1299) [µM] | IC50 (A549) [µM] | IC50 (HCT-116) [µM] | IC50 (NCI-H460) [µM] | IC50 (Hep 3B2) [µM] | Activity [1] | Activity [2] [%] | Activity (HT-22 [3]) [%] | Activity (HT-22 [4])
COc1ccc2c(c1)OC[C@H]1c3ccc(O)cc3O[C@@H]21 | > 10 | > 10 | > 10 | > 10 | > 10 | > 10 | – | – | – | –
CC1(C)C=Cc2cc3c(cc2O1)OC[C@H]1c2ccc(OCCN4CCNCC4)cc2O[C@@H]31 | 6.7 | 8.3 | 6.7 | 4.4 | 4.3 | > 10 | Non-Toxic | > 70 | > 70 | Toxic
CC1(C)C=Cc2c(ccc3c2OC[C@H]2c4ccccc4O[C@@H]32)O1 | > 10 | > 10 | > 10 | > 10 | > 10 | > 10 | – | – | – | –
CC1(C)C=Cc2c(ccc3c2OC[C@H]2c4ccc(OCCN5CCOCC5)cc4O[C@@H]32)O1 | > 10 | > 10 | > 10 | > 10 | > 10 | > 10 | – | – | – | –
CC1(C)C=Cc2cc3c(cc2O1)OC[C@H]1c2ccccc2O[C@@H]31 | > 10 | > 10 | > 10 | > 10 | > 10 | > 10 | – | – | – | –
CC1(C)C=Cc2cc3c(cc2O1)OC[C@H]1c2ccc(NS(C)(=O)=O)cc2O[C@@H]31 | > 10 | > 10 | > 10 | > 10 | > 10 | > 10 | – | – | – | –
CN1CCN(CCOc2ccc3c(c2)O[C@H]2c4ccc5c(c4OC[C@@H]32)C=CC(C)(C)O5)CC1 | > 10 | 6.6 | 6.5 | 5.2 | 4.2 | > 10 | Non-Toxic | > 70 | > 70 | Toxic
CC1(C)C=Cc2cc3c(cc2O1)OC[C@H]1c2ccc(N)cc2O[C@@H]31 | > 10 | > 10 | > 10 | > 10 | > 10 | > 10 | – | – | – | –
C#CC(C)(C)Oc1ccc2c(c1)OC[C@H]1c3ccc(O)cc3O[C@@H]21 | > 10 | > 10 | > 10 | > 10 | > 10 | > 10 | – | – | – | –
CN(C)CCOc1ccc2c(c1)O[C@H]1c3ccc4c(c3OC[C@@H]21)C=CC(C)(C)O4 | > 10 | 9.6 | 8.1 | 7 | 5.7 | > 10 | Non-Toxic | > 70 | > 70 | Toxic
CC1(C)C=Cc2cc3c(cc2O1)OC[C@H]1c2ccc([N+](=O)[O-])cc2O[C@@H]31 | > 10 | > 10 | > 10 | > 10 | > 10 | > 10 | – | – | – | –
COc1ccc2c(c1)O[C@H]1c3cc4c(cc3OC[C@@H]21)OC(C)(C)C=C4 | > 10 | > 10 | > 10 | > 10 | > 10 | > 10 | – | – | – | –
COCCOc1ccc2c(c1)O[C@H]1c3cc4c(cc3OC[C@@H]21)OC(C)(C)C=C4 | > 10 | > 10 | > 10 | > 10 | > 10 | > 10 | – | – | – | –
CC1(C)C=Cc2c(ccc3c2OC[C@H]2c4ccc(OCCN5CCNCC5)cc4O[C@@H]32)O1 | > 10 | > 10 | > 10 | > 10 | > 10 | > 10 | – | – | – | –
COCCOc1ccc2c(c1)O[C@H]1c3ccc4c(c3OC[C@@H]21)C=CC(C)(C)O4 | > 10 | > 10 | > 10 | > 10 | > 10 | > 10 | – | – | – | –
CC1(C)C=Cc2cc3c(cc2O1)OC[C@H]1c2ccc(OCCN4CCOCC4)cc2O[C@@H]31 | > 10 | > 10 | > 10 | > 10 | > 10 | > 10 | – | – | – | –
CC1(C)C=Cc2cc3c(cc2O1)OC[C@H]1c2ccc(O)cc2O[C@@H]31 [NEORAUTENOL] | 53.1 | 15 | 24.6 | 17.4 | 24.2 | 28.5 | – | – | – | –

Second part, led by results:

IC50 (MDA-MB-231) [µM] | IC50 (NCI-H1299) [µM] | IC50 (A549) [µM] | IC50 (HCT-116) [µM] | IC50 (NCI-H460) [µM] | SMILES | IC50 (Hep 3B2) [µM] | Activity [1] | Activity [2] [%] | Activity (HT-22 [3]) [%] | Activity (HT-22 [4])
> 10 | > 10 | > 10 | > 10 | > 10 | CC1(C)C=Cc2c(ccc3c2OC[C@H]2c4ccc([N+](=O)[O-])cc4O[C@@H]32)O1 | > 10 | – | – | – | –
> 10 | > 10 | > 10 | > 10 | > 10 | CC1(C)C=Cc2c(ccc3c2OC[C@H]2c4ccc(NS(C)(=O)=O)cc4O[C@@H]32)O1 | > 10 | – | – | – | –
> 10 | > 10 | > 10 | > 10 | > 10 | COc1ccc2c(c1)O[C@H]1c3ccc4c(c3OC[C@@H]21)C=CC(C)(C)O4 | > 10 | – | – | – | –
> 10 | > 10 | > 10 | > 10 | > 10 | CC(=O)Nc1ccc2c(c1)O[C@H]1c3cc4c(cc3OC[C@@H]21)OC(C)(C)C=C4 | > 10 | – | – | – | –
> 10 | > 10 | > 10 | > 10 | > 10 | CC(=O)Nc1ccc2c(c1)O[C@H]1c3ccc4c(c3OC[C@@H]21)C=CC(C)(C)O4 | > 10 | – | – | – | –
> 10 | > 10 | > 10 | > 10 | > 10 | CC1(C)C=Cc2c(ccc3c2OC[C@H]2c4ccc(N)cc4O[C@@H]32)O1 | > 10 | – | – | – | –
52.8 | 18.3 | 21.6 | 22.4 | 28 | CC1(C)C=Cc2c(ccc3c2OC[C@H]2c4ccc(O)cc4O[C@@H]32)O1 [SHINPTEROCARPIN] | 30.4 | – | – | – | –
